Measurements reported in patent US9352010B2, “Treatment of HIV-1 infection and AIDS” (The J. David Gladstone Institutes, priority 2011, dated 2016).
Read-outs that look alike come from different tables or passages of the source.

What was measured:
[1] = tested on: HLAC CD4 T-cells; assay: HLAC cells overlaid on virus-producing 293T-cells, CD4 T-cell depletion; type: cell-based, human; conditions: 24 hours co-culture
Description: HLACs were infected with viruses derived from the indicated HIV proviral clones in the presence of the indicated concentrations of AZT or in the absence of drugs. Six days after infection the amount of p24^gag in the medium was determined by FLAQ assay. The amount of p24^gag in the medium after infection wash (day 0) was defined as 0%. […] Viral incorporation of endogenous A3G was measured by immunoblot analysis of purified NL4-3 and Δvif NL4-3 virions harvested from 1 ml of supernatant from infected HLACs. Doses reflect 1:10 dilutions. […] Resting or activated CFSE-labeled cells were co-cultured with cells infected with WT or Δvif NL4-3 in the presence or absence of the following drugs, AZT (5 μM), AMD3100 (250 nM), the NNRTIs Efavirenz (100 nM), and Nevirapine (1 μM), or the integration inhibitors Raltegravir (30 μM) and 118-D-24 (60 μM). Data are representative of four independent experiments performed with cells from four different donors. (E) A method to assess indirect killing in HLAC with non-infectious HIV-1 clones. Fresh human tonsil is processed into HLAC and cells are cultured in suspension. At the same time 293T-cells are transfected with 1 μg HIV-1 DNA in a 24-well plate. After 12 hours, 293T-cells are washed and overlayed with 3×10^6 HLAC cells in RPMI in the presence of the indicated drugs. Virus-producing 293T-cells directly interact with target overlaying HLAC cells. After 24 hours, the HLAC suspensions are collected from wells and analyzed by flow cytometry. […] HLAC were cultured with the indicated drugs 3 hours before co-culture with 293T-cells. Percentages are normalized to the number of viable CD4 T-cells in HLAC overlaying non-transfected 293T-cells in the presence of AZT, as depicted by (*). Error bars represent standard error of the mean of three experiments performed using cells from three different HLAC donors.

[2] = tested on: CFSE-labeled CD4 T-cells; type: cell-based, human; conditions: for indirect killing (loss) of resting CFSE-labeled CD4 T-cells: NL4-3-infected effector cells

Compound | loss of HLAC CD4 T-cells over NL4-3-transfected 293T-cells [1] | indirect killing of CFSE-labeled CD4 T-cells ([2]; WEAU 16-8 (R5/X4)-infected effector cells) | AZT-induced killing of activated CFSE-labeled cells ([2]; activated target cells in the presence of AZT) | depletion of activated CFSE-labeled CD4 T-cells ([2]; AZT-resistant HIV-1 clones, AZT 0.5 μM) | indirect killing (loss) of resting CFSE-labeled CD4 T-cells [2] | depletion of activated CFSE-labeled CD4 T-cells ([2]; PHA and IL-2 activated target cells, NL4-3 effectors) | indirect killing of CFSE-labeled CD4 T-cells ([2]; GIA-SKY (T20-dependent)-infected effector cells, 1 μg/ml T20) | indirect killing of CFSE-labeled CD4 T-cells ([2]; SIM (T20-resistant)-infected effector cells)
c1cc(CN2CCCNCCNCCCNCC2)ccc1CN1CCCNCCNCCCNCC1 [AMD3100] | completely blocked | prevented indirect killing | prevented the AZT-induced killing | – | – | – | – | –
Cc1cn([C@H]2C[C@H](N=[N+]=[N-])[C@@H](CO)O2)c(=O)[nH]c1=O [AZT] | occurred both in the presence and absence of AZT | – | – | did not deplete | robust | extensively depleted in cultures containing AZT | – | –
O=C1Nc2ccc(Cl)cc2[C@@](C#CC2CC2)(C(F)(F)F)O1 [efavirenz] | completely blocked | – | – | – | blocked indirect killing of resting CD4 T-cells as efficiently as AMD3100 | – | – | –
enfuvirtide | – | – | – | – | greatly inhibited indirect killing | – | Indirect killing was observed | did not inhibit indirect killing
